The values below come from the OligoGym collection.

Oligonucleotides are given in HELM: sugar(base)linkage, 5' to 3'; d 2'-deoxyribose, r ribose, m 2'-O-methylribose, p phosphate. ss, as = sense and antisense strand
Also: test concentration or dose not given here.

The first data set addresses UBE2N. Put plainly: reporter assay of Huesken 2005. The conditions noted are these: siRNA. On the technique in general: A reporter such as luciferase makes a cellular process visible.
“RNA1{r(A)p.r(A)p.r(A)p.r(C)p.r(U)p.r(U)p.r(G)p.r(A)p.r(A)p.r(C)p.r(U)p.r(A)p.r(U)p.r(U)p.r(C)p.r(C)p.r(U)p.r(U)p.r(C)p.d(T)p.d(T)}|RNA2{r(G)p.r(A)p.r(A)p.r(G)p.r(G)p.r(A)p.r(A)p.r(U)p.r(A)p.r(G)p.r(U)p.r(U)p.r(C)p.r(A)p.r(A)p.r(G)p.r(U)p.r(U)p.r(U)p.d(A)p.d(A)}$$$RNA1{StrandType:ss}|RNA2{StrandType:as}$” displayed a normalised inhibition (eCFP-eYFP dual reporter) of 43.6%.
Substance “RNA1{r(A)p.r(A)p.r(A)p.r(U)p.r(G)p.r(A)p.r(U)p.r(G)p.r(U)p.r(A)p.r(G)p.r(C)p.r(G)p.r(G)p.r(A)p.r(G)p.r(C)p.r(A)p.r(G)p.d(T)p.d(T)}|RNA2{r(C)p.r(U)p.r(G)p.r(C)p.r(U)p.r(C)p.r(C)p.r(G)p.r(C)p.r(U)p.r(A)p.r(C)p.r(A)p.r(U)p.r(C)p.r(A)p.r(U)p.r(U)p.r(U)p.d(G)p.d(C)}$$$RNA1{StrandType:ss}|RNA2{StrandType:as}$” returned a normalised inhibition (eCFP-eYFP dual reporter) of 43.2%.
On the same count and under the same terms, with “RNA1{r(A)p.r(A)p.r(G)p.r(C)p.r(C)p.r(A)p.r(U)p.r(A)p.r(G)p.r(A)p.r(A)p.r(A)p.r(C)p.r(A)p.r(G)p.r(C)p.r(U)p.r(A)p.r(G)p.d(T)p.d(T)}|RNA2{r(C)p.r(U)p.r(A)p.r(G)p.r(C)p.r(U)p.r(G)p.r(U)p.r(U)p.r(U)p.r(C)p.r(U)p.r(A)p.r(U)p.r(G)p.r(G)p.r(C)p.r(U)p.r(U)p.d(G)p.d(G)}$$$RNA1{StrandType:ss}|RNA2{StrandType:as}$” the figure was 90.4%.
With “RNA1{r(A)p.r(A)p.r(G)p.r(C)p.r(C)p.r(C)p.r(A)p.r(A)p.r(G)p.r(C)p.r(C)p.r(A)p.r(U)p.r(A)p.r(G)p.r(A)p.r(A)p.r(A)p.r(C)p.d(T)p.d(T)}|RNA2{r(G)p.r(U)p.r(U)p.r(U)p.r(C)p.r(U)p.r(A)p.r(U)p.r(G)p.r(G)p.r(C)p.r(U)p.r(U)p.r(G)p.r(G)p.r(G)p.r(C)p.r(U)p.r(U)p.d(C)p.d(G)}$$$RNA1{StrandType:ss}|RNA2{StrandType:as}$”, the normalised inhibition (eCFP-eYFP dual reporter) is 61.1%.
On the same count and under the same terms, under “RNA1{r(A)p.r(A)p.r(G)p.r(C)p.r(C)p.r(G)p.r(A)p.r(A)p.r(C)p.r(C)p.r(A)p.r(G)p.r(A)p.r(U)p.r(G)p.r(A)p.r(G)p.r(A)p.r(G)p.d(T)p.d(T)}|RNA2{r(C)p.r(U)p.r(C)p.r(U)p.r(C)p.r(A)p.r(U)p.r(C)p.r(U)p.r(G)p.r(G)p.r(U)p.r(U)p.r(C)p.r(G)p.r(G)p.r(C)p.r(U)p.r(U)p.d(T)p.d(G)}$$$RNA1{StrandType:ss}|RNA2{StrandType:as}$” stands 88.3%; under “RNA1{r(A)p.r(A)p.r(G)p.r(U)p.r(G)p.r(G)p.r(U)p.r(C)p.r(C)p.r(C)p.r(C)p.r(A)p.r(G)p.r(C)p.r(A)p.r(C)p.r(U)p.r(G)p.r(C)p.d(T)p.d(T)}|RNA2{r(G)p.r(C)p.r(A)p.r(G)p.r(U)p.r(G)p.r(C)p.r(U)p.r(G)p.r(G)p.r(G)p.r(G)p.r(A)p.r(C)p.r(C)p.r(A)p.r(C)p.r(U)p.r(U)p.d(A)p.d(T)}$$$RNA1{StrandType:ss}|RNA2{StrandType:as}$”, 48.2%; under “RNA1{r(A)p.r(A)p.r(U)p.r(G)p.r(U)p.r(A)p.r(G)p.r(A)p.r(C)p.r(A)p.r(A)p.r(G)p.r(U)p.r(U)p.r(G)p.r(G)p.r(G)p.r(A)p.r(A)p.d(T)p.d(T)}|RNA2{r(U)p.r(U)p.r(C)p.r(C)p.r(C)p.r(A)p.r(A)p.r(C)p.r(U)p.r(U)p.r(G)p.r(U)p.r(C)p.r(U)p.r(A)p.r(C)p.r(A)p.r(U)p.r(U)p.d(A)p.d(G)}$$$RNA1{StrandType:ss}|RNA2{StrandType:as}$”, 93.8%.
“RNA1{r(A)p.r(C)p.r(C)p.r(A)p.r(A)p.r(A)p.r(A)p.r(U)p.r(U)p.r(U)p.r(A)p.r(U)p.r(C)p.r(A)p.r(U)p.r(C)p.r(C)p.r(U)p.r(A)p.d(T)p.d(T)}|RNA2{r(U)p.r(A)p.r(G)p.r(G)p.r(A)p.r(U)p.r(G)p.r(A)p.r(U)p.r(A)p.r(A)p.r(A)p.r(U)p.r(U)p.r(U)p.r(U)p.r(G)p.r(G)p.r(U)p.d(C)p.d(A)}$$$RNA1{StrandType:ss}|RNA2{StrandType:as}$” gave a normalised inhibition (eCFP-eYFP dual reporter) of 81.6%.
The same measure, in the same setting: with “RNA1{r(A)p.r(C)p.r(C)p.r(A)p.r(G)p.r(U)p.r(U)p.r(C)p.r(C)p.r(U)p.r(G)p.r(G)p.r(C)p.r(A)p.r(U)p.r(C)p.r(A)p.r(A)p.r(A)p.d(T)p.d(T)}|RNA2{r(U)p.r(U)p.r(U)p.r(G)p.r(A)p.r(U)p.r(G)p.r(C)p.r(C)p.r(A)p.r(G)p.r(G)p.r(A)p.r(A)p.r(C)p.r(U)p.r(G)p.r(G)p.r(U)p.d(T)p.d(C)}$$$RNA1{StrandType:ss}|RNA2{StrandType:as}$” the figure was 97.4%; with “RNA1{r(A)p.r(C)p.r(C)p.r(C)p.r(A)p.r(A)p.r(U)p.r(G)p.r(G)p.r(C)p.r(A)p.r(G)p.r(C)p.r(C)p.r(C)p.r(C)p.r(U)p.r(A)p.r(A)p.d(T)p.d(T)}|RNA2{r(U)p.r(U)p.r(A)p.r(G)p.r(G)p.r(G)p.r(G)p.r(C)p.r(U)p.r(G)p.r(C)p.r(C)p.r(A)p.r(U)p.r(U)p.r(G)p.r(G)p.r(G)p.r(U)p.d(A)p.d(T)}$$$RNA1{StrandType:ss}|RNA2{StrandType:as}$”, 64%.
On the same count and under the same terms, under “RNA1{r(A)p.r(C)p.r(G)p.r(A)p.r(A)p.r(G)p.r(C)p.r(C)p.r(C)p.r(A)p.r(A)p.r(G)p.r(C)p.r(C)p.r(A)p.r(U)p.r(A)p.r(G)p.r(A)p.d(T)p.d(T)}|RNA2{r(U)p.r(C)p.r(U)p.r(A)p.r(U)p.r(G)p.r(G)p.r(C)p.r(U)p.r(U)p.r(G)p.r(G)p.r(G)p.r(C)p.r(U)p.r(U)p.r(C)p.r(G)p.r(U)p.d(T)p.d(G)}$$$RNA1{StrandType:ss}|RNA2{StrandType:as}$” stands 77.5%.
On the same count and under the same terms, under “RNA1{r(A)p.r(C)p.r(G)p.r(C)p.r(C)p.r(C)p.r(G)p.r(U)p.r(U)p.r(A)p.r(U)p.r(U)p.r(U)p.r(U)p.r(C)p.r(A)p.r(U)p.r(G)p.r(U)p.d(T)p.d(T)}|RNA2{r(A)p.r(C)p.r(A)p.r(U)p.r(G)p.r(A)p.r(A)p.r(A)p.r(A)p.r(U)p.r(A)p.r(A)p.r(C)p.r(G)p.r(G)p.r(G)p.r(C)p.r(G)p.r(U)p.d(T)p.d(G)}$$$RNA1{StrandType:ss}|RNA2{StrandType:as}$” stands 62.4%.
With “RNA1{r(A)p.r(C)p.r(G)p.r(U)p.r(U)p.r(U)p.r(C)p.r(A)p.r(U)p.r(G)p.r(A)p.r(C)p.r(C)p.r(A)p.r(A)p.r(A)p.r(A)p.r(U)p.r(U)p.d(T)p.d(T)}|RNA2{r(A)p.r(A)p.r(U)p.r(U)p.r(U)p.r(U)p.r(G)p.r(G)p.r(U)p.r(C)p.r(A)p.r(U)p.r(G)p.r(A)p.r(A)p.r(A)p.r(C)p.r(G)p.r(U)p.d(A)p.d(C)}$$$RNA1{StrandType:ss}|RNA2{StrandType:as}$”, the normalised inhibition (eCFP-eYFP dual reporter) is 92.1%.
“RNA1{r(A)p.r(C)p.r(U)p.r(U)p.r(G)p.r(A)p.r(A)p.r(C)p.r(U)p.r(A)p.r(U)p.r(U)p.r(C)p.r(C)p.r(U)p.r(U)p.r(C)p.r(C)p.r(A)p.d(T)p.d(T)}|RNA2{r(U)p.r(G)p.r(G)p.r(A)p.r(A)p.r(G)p.r(G)p.r(A)p.r(A)p.r(U)p.r(A)p.r(G)p.r(U)p.r(U)p.r(C)p.r(A)p.r(A)p.r(G)p.r(U)p.d(T)p.d(T)}$$$RNA1{StrandType:ss}|RNA2{StrandType:as}$”: the normalised inhibition (eCFP-eYFP dual reporter) was found to be 96.1%.
The substance “RNA1{r(A)p.r(G)p.r(A)p.r(A)p.r(C)p.r(C)p.r(A)p.r(G)p.r(U)p.r(U)p.r(C)p.r(C)p.r(U)p.r(G)p.r(G)p.r(C)p.r(A)p.r(U)p.r(C)p.d(T)p.d(T)}|RNA2{r(G)p.r(A)p.r(U)p.r(G)p.r(C)p.r(C)p.r(A)p.r(G)p.r(G)p.r(A)p.r(A)p.r(C)p.r(U)p.r(G)p.r(G)p.r(U)p.r(U)p.r(C)p.r(U)p.d(G)p.d(C)}$$$RNA1{StrandType:ss}|RNA2{StrandType:as}$” had a normalised inhibition (eCFP-eYFP dual reporter) of 60.7%.
The same measure, in the same setting: with “RNA1{r(A)p.r(G)p.r(A)p.r(A)p.r(U)p.r(A)p.r(C)p.r(C)p.r(C)p.r(A)p.r(A)p.r(U)p.r(G)p.r(G)p.r(C)p.r(A)p.r(G)p.r(C)p.r(C)p.d(T)p.d(T)}|RNA2{r(G)p.r(G)p.r(C)p.r(U)p.r(G)p.r(C)p.r(C)p.r(A)p.r(U)p.r(U)p.r(G)p.r(G)p.r(G)p.r(U)p.r(A)p.r(U)p.r(U)p.r(C)p.r(U)p.d(T)p.d(C)}$$$RNA1{StrandType:ss}|RNA2{StrandType:as}$” the figure was 44.7%; with “RNA1{r(A)p.r(G)p.r(A)p.r(U)p.r(A)p.r(U)p.r(U)p.r(U)p.r(U)p.r(G)p.r(A)p.r(A)p.r(A)p.r(G)p.r(A)p.r(U)p.r(A)p.r(A)p.r(G)p.d(T)p.d(T)}|RNA2{r(C)p.r(U)p.r(U)p.r(A)p.r(U)p.r(C)p.r(U)p.r(U)p.r(U)p.r(C)p.r(A)p.r(A)p.r(A)p.r(A)p.r(U)p.r(A)p.r(U)p.r(C)p.r(U)p.d(A)p.d(G)}$$$RNA1{StrandType:ss}|RNA2{StrandType:as}$”, 57.1%.

For another data set, the target named is UBE2K. Description: reporter assay of Huesken 2005. The conditions noted are these: siRNA.
“RNA1{r(U)p.r(U)p.r(G)p.r(U)p.r(A)p.r(G)p.r(A)p.r(U)p.r(G)p.r(A)p.r(G)p.r(A)p.r(A)p.r(U)p.r(U)p.r(U)p.r(U)p.r(A)p.r(C)p.d(T)p.d(T)}|RNA2{r(G)p.r(U)p.r(A)p.r(A)p.r(A)p.r(A)p.r(U)p.r(U)p.r(C)p.r(U)p.r(C)p.r(A)p.r(U)p.r(C)p.r(U)p.r(A)p.r(C)p.r(A)p.r(A)p.d(G)p.d(A)}$$$RNA1{StrandType:ss}|RNA2{StrandType:as}$” came in with a normalised inhibition (eCFP-eYFP dual reporter) of 55.1%.
In turn, “RNA1{r(U)p.r(U)p.r(U)p.r(G)p.r(U)p.r(U)p.r(U)p.r(G)p.r(G)p.r(A)p.r(U)p.r(A)p.r(U)p.r(C)p.r(C)p.r(U)p.r(G)p.r(A)p.r(A)p.d(T)p.d(T)}|RNA2{r(U)p.r(U)p.r(C)p.r(A)p.r(G)p.r(G)p.r(A)p.r(U)p.r(A)p.r(U)p.r(C)p.r(C)p.r(A)p.r(A)p.r(A)p.r(C)p.r(A)p.r(A)p.r(A)p.d(T)p.d(A)}$$$RNA1{StrandType:ss}|RNA2{StrandType:as}$” had a normalised inhibition (eCFP-eYFP dual reporter) of 78.9%.
Consider “RNA1{r(U)p.r(U)p.r(U)p.r(U)p.r(A)p.r(C)p.r(A)p.r(G)p.r(A)p.r(A)p.r(U)p.r(U)p.r(A)p.r(A)p.r(G)p.r(A)p.r(G)p.r(G)p.r(A)p.d(T)p.d(T)}|RNA2{r(U)p.r(C)p.r(C)p.r(U)p.r(C)p.r(U)p.r(U)p.r(A)p.r(A)p.r(U)p.r(U)p.r(C)p.r(U)p.r(G)p.r(U)p.r(A)p.r(A)p.r(A)p.r(A)p.d(T)p.d(T)}$$$RNA1{StrandType:ss}|RNA2{StrandType:as}$”, for which the normalised inhibition (eCFP-eYFP dual reporter) was determined as 47.6%.
